Patent US20190374628A1, “MUTATED FRAGMENTS OF THE RAS PROTEIN” (Targovax ASA, priority 2015, published 2019)
“And” between values parts separate entries of the source, which are not always exact repeats. Equal values may be shown once.

Key:
[1] = system: splenocytes; experiment: Splenocyte proliferation assay (3H-thymidine) after subcutaneous vaccination of mice with TG02; format: cell-based, BALB/c mice; details: ex vivo 10 μM TG02 per peptide or 1 μg/200 μL ConA, 5 days; for Counts per minute (CPM) of stimulated splenocytes: single replicates
Description: In this Example, mice were repeatedly vaccinated subcutaneously with TG02, in order to analyse the immune response. Following the vaccination, splenocytes were harvested, and the proliferative response of the splenocytes was measured.
The study was conducted with 3 groups, each compromising 10 female BALB/c mice. The start of the study was performed on two separate days on which 5 of the animals per group were treated. Therefore the groups were divided into part I and part II. The animals were treated subcutaneously at different time points (Table 30).
In all groups the test item was administered at repeated time points (Table 33) by subcutaneous injection between the nape of the neck and the shoulder. The application volume for all groups was 0.1 mL (0.80 mg TG02).
The spleen of all animals was removed, transferred to cell culture medium (RPMI 1640 medium supplemented with 10% FCS, 100 U/mL Penicillin, 100 μg/mL Streptomycin, 2 mM L-Glutamine, and 50 μM beta-mercaptoethanol) and stored on ice. All steps were performed sterile and cells were kept on ice.
A single cell suspension from splenic cells was generated using a cell strainer. After centrifugation (350 g, 5 min, 5±3° C.), supernatant was removed and the cell pellet was resuspended in ACK buffer and incubated for 5 min at RT. 10 mL cell culture medium was added. The samples were left 5 min on bench top to let the cell debris sediment. The suspension above the cell debris was transferred into another tube and was centrifuged (350 g, 5 min, 5±3° C.). The supernatant was removed and the cell pellet was resuspended in 10 mL cell culture medium. After counting of cells, 0.2 Mio cells were seeded in a 96 well plate (180 μL per well; 1,1*10^6 cells/mL). 9 replicates were plated on each plate for each spleen.
The following stimulations were performed: • 3 replicates: unstimulated (addition of 20 μL cell culture medium) • 3 replicates: stimulation with 10 μM TG02 (8 peptides, 10 μM end concentration per peptide, addition in 20 μL cell culture medium) • 3 replicates: stimulation with 1 μg/200 μL ConA (Concanavalin A) (addition of 1 μg ConA in 20 μL cell culture medium)
Incubation at 37° C. and 5% CO2 for 24 h (1), 48 h (2) or 5 days (3).
Proliferation Assay • (3) After 5 days, 1 μCi/well ^3H-Thymidine was added to the samples, which were then incubated for 18 h at 37° C. and 5% CO2. The plates were then frozen at […]
Plates were thawed at RT. After washing off the harvester, the samples were transferred to a filter plate using the harvester followed by 5 washing steps using water. Filter plates were dried at RT overnight. A foil was stuck to the bottom of the filter plates and 20 μL scintillation fluid was added to the wells. After incubation of 1 h at RT, the samples were measured using a TopCount NXT and the stimulation index (SI) was calculated. SI=CPM of stimulated samples/CPM of control samples.

[2] = system: T-cells; experiment: 3-day T-cell proliferation assay after stimulation of buffy coat PBMCs with TGX3 or A146T peptide; format: cell-based, human; details: buffy coat of healthy donor (buffy 5), FIG. 11
Description: In this Example, Buffy coats were collected from three normal donors (Buffy 5, Buffy 6, and Buffy 7) for testing of T cell responses to selected peptides reflecting exon 2, 3 and 4 mutations in RAS. The standard operating procedure (SOP) for monitoring of T cell responses in clinical studies with KRAS peptide vaccination (TG01) was used for testing of peptide cocktail TGX3 and individual peptides.
Peptide cocktail TGX3 was a mixture of equimolar amounts of A146T+G13C+G13D+Q61R.
The procedure was performed at room temperature. All handling of cells in the open was done in a vertical laminar flow hood. • 1. 3 Buffy coats were ordered from Blodbanken, Ulleval, OUS, Norway • 2. PBMCs were isolated according to methods C001-003 (platelet-low). • 3. The number of viable cells was counted using KOVA Galsstic slides and the cell concentration adjusted to 4×10^6 cells/ml in complete CellGro DC medium (see recipe). Total cell numbers: Buffy 5-585×10^6, Buffy 6-360×10^6, and Buffy 7-405×10^6 cells. […]
c) Second Stimulation (Day 14) of Bulk Cultures • 1. Day 14: Harvested, washed and counted T-cells in the bulk cultures from 6.2; […]
d) Third Stimulation (Day 19) and Testing for Specificities in 3-Day T-Cell Proliferation Assay—Bulk Cultures • 1. Day 19: Harvested, washed and counted T-cells in the bulk cultures from 6.3; […]

[3] = system: T-cells; experiment: Bulk cultures for increasing number of TGX3 and peptide reactive T-cells: total T cell numbers; format: cell-based, human; details: for Total T cell numbers in cultures: Day 14, after first stimulation, 10 μM of each peptide; for Total T cell numbers: Day 19, after second stimulation
Description: b) First Stimulation—Bulk Cultures for Increasing Number of TGX3 and Peptide Reactive T-Cells • 1. Transfered 1 ml of the different PBMCs (4×10^6 cells/ml in DC medium) to each well in a 24-well plate.
• 2. Added TGX3-mix/single peptide to each well for a final concentration of 10 μM of each peptide. • 3. Cultured the cells in a humidified incubator at 37° C./5% CO2 for 3 days • 4. Day 3: Added a final concentration of 20 iU/ml of recombinant human interleukin-2 (rIL-2, b#77) and final concentration of 5 ng/ml recombinant human IL-7 (b#25) to the cell cultures and continued incubation at 37° C./5% CO2. This depended on how fast the cells were growing and needed to be decided by a trained person with T-cell culture experience (according to checklist for training, Section for Cell Therapy). • 5. Days 4-12: Cells were checked regularly under the microscope and split when required (500 μl was withdrawn from each well and replaced with 500 μl fresh CellGro DC medium, supplemented with 20 iU/ml IL-2 and 5 ng/ml IL-7) and wells with slow growing cells were mixed together.
c) Second Stimulation (Day 14) of Bulk Cultures • 1. Day 14: Harvested, washed and counted T-cells in the bulk cultures from 6.2;
Bulk culture cells (ca 2×10^6 T cells/well) were re-stimulated once more with autologous irradiated (30 Gy) APCs (ca 2×10^6 APCs/well) added their respective peptides (as described in step b) above). • 2. Cultured the cells in a humidified incubator at 37° C./5% CO2 for 3 days. • 3. Day 3 after second stimulation (i.e. Day 17 of the procedure): A final concentration of 20 iU/ml of recombinant human interleukin-2 (rIL-2, b#77) and final concentration of 5 ng/ml recombinant human IL-7 (b#25) were added to the cell cultures and continued incubation at 37° C./5% CO2 (as described in step b) above). • 4. Day 18-26: Cells were checked regularly under the microscope and split when required (500 μl was withdrawn from each well and replaced with 500 μl fresh CellGro DC medium, supplemented with 20 iU/ml IL-2 and 5 ng/ml IL-7) and wells with slow growing cells were mixed together (see step b) above).
d) Third Stimulation (Day 19) and Testing for Specificities in 3-Day T-Cell Proliferation Assay—Bulk Cultures • 1. Day 19: Harvested, washed and counted T-cells in the bulk cultures from 6.3;

Substance | Mean counts per minute (CPM) of stimulated splenocytes ([1]; Mean Mouse #4 (vaccinated with TG02)) | Mean counts per minute (CPM) of stimulated splenocytes ([1]; Mean Mouse #7 (vaccinated with TG02)) | Mean counts per minute (CPM) of stimulated splenocytes ([1]; Mean Mouse #24 (vaccinated with TG02+Viscogel)) | Mean counts per minute (CPM) of stimulated splenocytes ([1]; Mean Mouse #29 (vaccinated with TG02+Viscogel)) | Counts per minute (CPM) of stimulated splenocytes ([1]; Mouse #4 (vaccinated with TG02)) | Counts per minute (CPM) of stimulated splenocytes ([1]; Mouse #7 (vaccinated with TG02)) | Counts per minute (CPM) of stimulated splenocytes ([1]; Mouse #24 (vaccinated with TG02+Viscogel)) | Counts per minute (CPM) of stimulated splenocytes ([1]; Mouse #29 (vaccinated with TG02+Viscogel)) | Counts per minute (CPM) of stimulated splenocytes ([1]; Mouse #30 (vaccinated with TG02+Viscogel)) | Mean counts per minute (CPM) of stimulated splenocytes ([1]; Mouse #30 mean line (vaccinated with TG02+Viscogel)) | T-cell proliferation after stimulation with A146T peptide (result in words) [2] | T-cell proliferation after stimulation with A146T peptide (result in words) ([2]; listed as A146T peptide) | Total T cell numbers in cultures ([3]; Buffy 5) | Total T cell numbers ([3]; Buffy 5) | Total T cell numbers in cultures ([3]; Buffy 6) | Total T cell numbers ([3]; Buffy 6) | Total T cell numbers in cultures ([3]; Buffy 7) | Total T cell numbers ([3]; Buffy 7)
Concanavalin A [ConA] | 15,210 CPM | 6158 CPM | 8823 CPM | 10,935 CPM | 15,113 CPM and 12,612 CPM and 17,906 CPM | 5305 CPM and 6252 CPM and 6916 CPM | 7834 CPM and 8578 CPM and 10,057 CPM | 9480 CPM and 13,292 CPM and 10,033 CPM | 32,205 CPM and 35,668 CPM and 42,149 CPM | 36,687 CPM |  |  |  |  |  |  |  | 
GIPFIETSTKTRQRVED (listed as Homo sapiens) [A146T, KRAS peptide having a A146T mutation] |  |  |  |  |  |  |  |  |  |  | immunogenic and is efficient in inducing T-cell proliferation | stimulates induction of T-cells | 4 × 10^6 | 10.8 × 10^6 | 4 × 10^6 | 12.6 × 10^6 | 6.8 × 10^6 | 14.4 × 10^6
